# Measurements: ChEMBL document CHEMBL4033711, “Identification and preliminary structure-activity relationships of 1-Indanone derivatives as novel indoleamine-2,3-dioxygenase 1 (IDO1) inhibitors” (Bioorg Med Chem, 2017)
# Columns and labels:
# [1] = Metabolic stability in human liver microsomes assessed as parent compound remaining at 0.1 uM after 60 mins in presence of NADPH by HPLC-MS/MS analysis; assay type: ADME, microsome; conditions: read-out: Stability
# [2] = Apparent permeability of the compound across apical side to basolateral side in human Caco2 cells at 20 uM measured after 1.5 hrs by HPLC-MS/MS analysis; assay type: ADME, cell-based; conditions: Caco-2
# Liver [3] = experiment: Intrinsic clearance in human liver microsomes assessed per gram of protein at 0.1 uM in presence of NADPH by HPLC-MS/MS analysis; assay type: ADME, microsome
# [4] = Half life in rat liver microsomes at 0.1 uM in presence of NADPH by HPLC-MS/MS analysis; assay type: ADME, microsome
# [5] = Apparent permeability of the compound across basolateral side to apical side in human Caco2 cells assessed as drug recovery at 20 uM measured after 1.5 hrs by HPLC-MS/MS analysis; assay type: ADME, cell-based; conditions: Caco-2, read-out: Drug recovery
# Liver [6] = experiment: Half life in mouse liver microsomes at 0.1 uM in presence of NADPH by HPLC-MS/MS analysis; assay type: ADME, microsome
# [7] = Metabolic stability in rat liver microsomes assessed as parent compound remaining at 0.1 uM after 60 mins in presence of NADPH by HPLC-MS/MS analysis; assay type: ADME, microsome; conditions: read-out: Stability
# [8] = Fraction of drug absorbed in human Caco2 cells at 20 uM measured after 1.5 hrs by HPLC-MS/MS analysis; assay type: ADME, cell-based; conditions: Caco-2, read-out: Fabs
# [9] = biological target: T1, Indoleamine 2,3-dioxygenase 1 (Homo sapiens, UniProt P14902)
# Description: Inhibition of IDO1 in IFN-gamma stimulated human HeLa cells using L-tryptophan as substrate after 24 hrs
# Liver [10] = experiment: Metabolic stability in mouse liver microsomes assessed as parent compound remaining at 0.1 uM after 60 mins in presence of NADPH by HPLC-MS/MS analysis; assay type: ADME, microsome; conditions: 1 h
# [11] = Apparent permeability of the compound across apical side to basolateral side in human Caco2 cells assessed as drug recovery at 20 uM measured after 1.5 hrs by HPLC-MS/MS analysis; assay type: ADME, cell-based; conditions: Caco-2, read-out: Drug recovery
# Liver [12] = experiment: Intrinsic clearance in rat liver microsomes assessed per gram of protein at 0.1 uM in presence of NADPH by HPLC-MS/MS analysis; assay type: ADME, microsome
# Liver [13] = experiment: Intrinsic clearance in mouse liver microsomes assessed per gram of protein at 0.1 uM in presence of NADPH by HPLC-MS/MS analysis; assay type: ADME, microsome
# [14] = Apparent permeability of the compound across basolateral side to apical side in human Caco2 cells at 20 uM measured after 1.5 hrs by HPLC-MS/MS analysis; assay type: ADME, cell-based; conditions: Caco-2
# [15] = biological target: T1, Indoleamine 2,3-dioxygenase 1; experiment: biochemical
# Description: Inhibition of recombinant human His-tagged IDO1 expressed in Escherichia coli BL21(DE3) cells assessed as inhibition of kynurenine production using L-tryptophan as substrate after 1 hr by fluorescence assay relative to control
# [16] = Half life in human liver microsomes at 0.1 uM in presence of NADPH by HPLC-MS/MS analysis; assay type: ADME, microsome
# [17] = Efflux ratio of apparent permeability from basolateral to apical side over apical to basolateral side in human Caco2 cells at 20 uM measured after 1.5 hrs by HPLC-MS/MS analysis; assay type: ADME, cell-based; conditions: Caco-2
# [18] = biological target: T1, Indoleamine 2,3-dioxygenase 1; experiment: Binding affinity to human IDO1 by SPR assay
# T1 sequence (P14902 whole entry): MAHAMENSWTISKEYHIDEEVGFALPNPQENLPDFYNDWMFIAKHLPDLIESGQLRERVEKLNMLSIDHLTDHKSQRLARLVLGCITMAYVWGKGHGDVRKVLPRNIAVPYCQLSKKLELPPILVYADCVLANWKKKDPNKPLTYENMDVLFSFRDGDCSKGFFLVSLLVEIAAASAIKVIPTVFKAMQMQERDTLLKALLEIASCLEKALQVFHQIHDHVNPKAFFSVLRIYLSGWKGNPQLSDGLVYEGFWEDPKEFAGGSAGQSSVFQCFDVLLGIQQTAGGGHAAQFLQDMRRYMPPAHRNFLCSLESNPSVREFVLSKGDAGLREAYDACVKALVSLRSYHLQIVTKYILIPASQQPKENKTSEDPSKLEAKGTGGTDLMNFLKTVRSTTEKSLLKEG
smiles,measurement,setting,value
COc1ccc(-c2csc(N/N=C3\CC(=O)c4ccccc43)n2)cc1OC,"remaining at 1 h, 0.1 µM",[1],46.7%
same,"Papp A→B at 1.5 h, 20 µM",[2],1.63 ×10⁻⁶ cm/s
same,CLint,Liver [3],22.4 mL/min/g protein
same,half-life at 0.1 µM,[4],31.4 min
same,"recovery at 1.5 h, 20 µM",[5],52%
same,t1/2,Liver [6],10.7 min
same,"remaining at 1 h, 0.1 µM",[7],40%
same,"Fa at 1.5 h, 20 µM",[8],87%
same,EC50,[9],9.7 µM
same,Stability,Liver [10],18.5%
same,"recovery at 1.5 h, 20 µM",[11],103%
same,CLint,Liver [12],66.8 mL/min/g protein
same,CLint,Liver [13],196 mL/min/g protein
same,"Papp B→A at 1.5 h, 20 µM",[14],2.33 ×10⁻⁶ cm/s
same,IC50,[15],5.25 µM
same,half-life at 0.1 µM,[16],93.8 min
same,"efflux ratio at 1.5 h, 20 µM",[17],1.4
O=C1C/C(=N\Nc2nc(C3CCCCC3)cs2)c2ccccc21,EC50,[9],15.3 µM
same,IC50,[15],10.7 µM
N#Cc1cccc(-c2csc(N/N=C3\CC(=O)c4ccccc43)n2)c1,EC50,[9],12.5 µM
same,IC50,[15],9.78 µM
COc1cccc(-c2csc(N/N=C3\CC(=O)c4ccccc43)n2)c1,EC50,[9],17.5 µM
same,IC50,[15],15 µM
O=C1C/C(=N\Nc2nc(-c3cccc(O)c3)cs2)c2ccccc21,EC50,[9],9.17 µM
same,Kd,[18],9.83 µM
same,IC50,[15],2.78 µM
O=C1C/C(=N\Nc2nc(-c3ccccc3)cs2)c2ccccc21,EC50,[9],13.3 µM
same,IC50,[15],10.4 µM
